# Assay results taken from patent US12303517B1, “Oral testosterone therapy” (Lipocine, Inc., priority 2016, dated 2025).
# Assay: Randomized double-blind placebo-controlled dose escalating clinical study of oral T13 in hypogonadal males (serum testosterone pharmacokinetics)
# Type: in vivo, human
# Settings: for T Cavg (±SD) / T Cmax (±SD) / % with Cavg/day > 300 ng/dL / % with Cmax/dose < 1,500 ng/dL: hypogonadal males; for % with Cavg/day > 300 ng/dL / % with Cmax/dose < 1,500 ng/dL: serum T
# Method: Dosage Form Example B of Composition 4 with dosing regimen (Regimen #. 1-9) of dosing category BID-equal dose with daily dose range 500-1250 mg of T13 in this invention were used for a clinic study of Testosterone Therapy for hypogonadal males.
# This Clinical Study is a Randomized Double-Blind, Placebo-Controlled Dose Escalating Study of the Safety, Efficacy, Tolerability, and Pharmacokinetics of Testosterone Therapy in Hypogonadal Males. This clinic study was a single and multiple, ascending-dose study that was designed to determine the optimal starting, titration (if appropriate), or single fixed dose for safety and efficacy targeted by US FDA. The study also verified the time for testosterone levels to reach steady state and identified a suitable single fixed dose dosing regimen that satisfies unmet need for safety and efficacy for oral TRT.
# This study was carried out with conditions of a single-center, randomized, double-blind, placebo-controlled, ascending multiple-dose, and serial-group in adult hypogonadal male subjects. The objectives of this study were: • a) To assess the safety, efficacy, and tolerability of escalating single and multiple oral doses of T13 dosage forms in hypogonadal males • b) To determine the pharmacokinetics (PK) of testosterone (T), DHT, TT, DHTT, and estradiol (E2) after single and multiple oral doses of TT dosage forms in hypogonadal males • c) To identify single fixed dose dosing regimen satisfying USFDA target, not needing to titrate for restoring average serum T levels in hypogonadal males to the normal T range.
# The dosing regimen for this clinic study ranged from 500 mg daily dose to 1250 mg daily dose with […]. Observed pharmacokinetic parameters (T, DHT, T13, DHTT, and E2) after single and multiple oral doses of T13 dosage forms in the patients were recorded by each daily dose in the report. […] The overall analyzed results of this clinic study were plotted according to % of patients for safety (Cmax <1,500 ng/dL) and efficacy (Cavg >300 ng/dL) with a variety of dosing regimen. Its results are shown in the below table.
# [1] = 750 mg T13 QD dose at steady state (14 days)
# [2] = daily dose 500 mg T13 (equivalent T dose 298 mg)
# [3] = daily dose 700 mg T13 (equivalent T dose 417 mg)
# [4] = daily dose 750 mg T13 QD (equivalent T dose 446 mg)
# [5] = daily dose 800 mg T13 (equivalent T dose 476 mg)
# [6] = daily dose 900 mg T13 (equivalent T dose 536 mg)
# [7] = daily dose 1000 mg T13 QD (equivalent T dose 595 mg)
# [8] = daily dose 1100 mg T13 (equivalent T dose 655 mg)
# [9] = daily dose 1150 mg T13 (equivalent T dose 685 mg)
# [10] = daily dose 1250 mg T13 (equivalent T dose 744 mg)
compound,measurement,setting,value
"CCCCCCCCCCCCC(=O)O[C@H]1CC[C@H]2[C@@H]3CCC4=CC(=O)CC[C@]4(C)[C@H]3CC[C@]12C [T13, testosterone tridecanoate]",T Cavg (±SD),[1],352 (±41) ng/dL
same,T Cmax (±SD),[1],822 (±254) ng/dL
same,T Cavg (±SD),1000 mg QD dose at steady state (14 days),405 (±148) ng/dL
same,T Cmax (±SD),1000 mg T13 QD dose at steady state (14 days),930 (±326) ng/dL
same,% with Cavg/day > 300 ng/dL,[2],36.3%
same,"% with Cmax/dose < 1,500 ng/dL",[2],100.0%
same,% with Cavg/day > 300 ng/dL,[3],71.5%
same,"% with Cmax/dose < 1,500 ng/dL",[3],100.0%
same,% with Cavg/day > 300 ng/dL,[4],76.2%
same,"% with Cmax/dose < 1,500 ng/dL",[4],99.5%
same,% with Cavg/day > 300 ng/dL,[5],80.0%
same,"% with Cmax/dose < 1,500 ng/dL",[5],98.8%
same,% with Cavg/day > 300 ng/dL,[6],85.0%
same,"% with Cmax/dose < 1,500 ng/dL",[6],96.7%
same,% with Cavg/day > 300 ng/dL,[7],88.1%
same,"% with Cmax/dose < 1,500 ng/dL",[7],92.8%
same,% with Cavg/day > 300 ng/dL,[8],90.0%
same,"% with Cmax/dose < 1,500 ng/dL",[8],85.6%
same,% with Cavg/day > 300 ng/dL,[9],90.7%
same,"% with Cmax/dose < 1,500 ng/dL",[9],80.0%
same,% with Cavg/day > 300 ng/dL,[10],91.6%
same,"% with Cmax/dose < 1,500 ng/dL",[10],66.8%
same,US FDA T level target for safety and efficacy for testosterone replacement therapy,"single fixed dose, no titration, 750 mg to 1100 mg daily dose of T13",satisfies US FDA T level target for safety and efficacy
